According to DBAASP:
≈ marks a conversion by molar mass, not a printed value. Blank lines part the entries; values can stand above or below the compound they belong to.

What was measured:
Assay in all cases: ≥ marks a high value that may be exact or a test limit, other limits are often not marked, values filed in µg/mL are converted to µM
[1] = tested on: Candida albicans CGMCC 2.2086
[2] = tested on: Candida parapsilosis CGMCC 2.3989
[3] = tested on: Candida tropicalis CGMCC 2.1975
[4] = tested on: Lacticaseibacillus rhamnosus 7469
[5] = tested on: Lactiplantibacillus plantarum 8014
[6] = tested on: Salmonella enterica subsp. enterica serovar Typhimurium ATCC 14028
[7] = tested on: Salmonella enterica subsp. enterica serovar Typhimurium C77-31
[8] = tested on: Staphylococcus aureus ATCC 25923
[9] = tested on: Staphylococcus aureus ATCC 29213
[10] = tested on: Staphylococcus epidermidis ATCC 12228
[11] = tested on: Bacillus subtilis ATCC 6633
[12] = tested on: Escherichia coli ATCC 15597
[13] = tested on: Klebsiella pneumoniae NCTC 5055
[14] = tested on: Micrococcus luteus ATCC 49732
[15] = tested on: Pseudomonas aeruginosa ATCC 27853
[16] = tested on: Salmonella typhimurium DA6192
[17] = tested on: Staphylococcus aureus ATCC 6538
Escherichia coli BW25113 = tested on: Escherichia coli BW25113

MIC [1]: 2 µM (≈ 7.33 µg/mL)
MIC [2]: 2 µM (≈ 7.33 µg/mL)
MIC [3]: 1 µM (≈ 3.67 µg/mL)
MIC [4]: ≥ 64 µM
MIC [6]: 64 µM (≈ 235 µg/mL)
MIC [7]: ≥ 64 µM
MIC [8]: > 64 µM
MIC [9]: > 64 µM
MIC [10]: > 64 µM
Compound: CC[C@H](C)[C@H](N)C(=O)N[C@@H](Cc1cnc[nH]1)C(=O)N[C@@H](Cc1cnc[nH]1)C(=O)N[C@H](C(=O)N[C@@H](Cc1cnc[nH]1)C(=O)N[C@@H](Cc1cnc[nH]1)C(=O)N[C@@H](Cc1cnc[nH]1)C(=O)N[C@H](C(=O)N[C@@H](Cc1cnc[nH]1)C(=O)N[C@@H](Cc1cnc[nH]1)C(=O)N[C@H](C(=O)N[C@@H](Cc1cnc[nH]1)C(=O)N[C@@H](Cc1cnc[nH]1)C(=O)N[C@@H](Cc1cnc[nH]1)C(=O)N[C@H](C(=O)N[C@@H](Cc1cnc[nH]1)C(=O)N[C@@H](Cc1cnc[nH]1)C(=O)N[C@H](C(=O)N[C@@H](Cc1cnc[nH]1)C(=O)N[C@@H](Cc1cnc[nH]1)C(=O)N[C@@H](Cc1cnc[nH]1)C(=O)N[C@H](C(=O)N[C@@H](Cc1cnc[nH]1)C(=O)N[C@@H](Cc1cnc[nH]1)C(=O)N[C@H](C(=O)N[C@@H](Cc1cnc[nH]1)C(=O)N[C@@H](Cc1cnc[nH]1)C(=O)N[C@@H](Cc1cnc[nH]1)C(N)=O)[C@@H](C)CC)[C@@H](C)CC)[C@@H](C)CC)[C@@H](C)CC)[C@@H](C)CC)[C@@H](C)CC)[C@@H](C)CC [IHHIHHHIHHIHHHIHHIHHHIHHIHHH]
MIC [5]: 8 µM (≈ 29.3 µg/mL)

MIC [11]: 4.2 µM (≈ 8.69 µg/mL)
MIC [12]: 2.8 µM (≈ 5.79 µg/mL)
MIC [13]: 25 µM (≈ 51.7 µg/mL)
MIC [14]: 1.05 µM (≈ 2.17 µg/mL)
MIC [15]: 2.08 µM (≈ 4.3 µg/mL)
MIC [16]: 16.7 µM (≈ 34.5 µg/mL)
MIC [17]: > 50 µM
Compound: CC[C@H](C)[C@H](N)C(=O)N[C@H](C(=O)N[C@@H](CCCCN)C(=O)N[C@H](C(=O)N[C@H](C(=O)N[C@H](C(=O)N[C@@H](CCCCN)C(=O)N[C@@H](CC(C)C)C(=O)N[C@@H](CC(C)C)C(=O)N[C@@H](CC(N)=O)C(=O)N[C@@H](CCCN=C(N)N)C(=O)N[C@@H](CC(C)C)C(=O)N[C@@H](CO)C(=O)N[C@@H](CCCCN)C(=O)N[C@H](C(=O)N[C@@H](CC(C)C)C(=O)N[C@@H](CO)C(=O)N[C@@H](CCCCN)C(=O)O)[C@@H](C)CC)[C@@H](C)O)[C@@H](C)CC)C(C)C)[C@@H](C)O [ITKVITKLLNRLSKILSK]

MIC (Escherichia coli BW25113): 16 µM (≈ 38.2 µg/mL)
Compound: CC[C@H](C)[C@H](NC(=O)[C@@H]1CCCN1C(=O)[C@H](CCCN=C(N)N)NC(=O)[C@H](CCCN=C(N)N)NC(=O)[C@H](CCCN=C(N)N)NC(=O)[C@@H](N)CCCN=C(N)N)C(=O)N[C@@H](CCCN=C(N)N)C(=O)N[C@@H](CCCN=C(N)N)C(=O)N[C@@H](CCCN=C(N)N)C(=O)N1CCC[C@H]1C(=O)N[C@H](C(=O)N[C@@H](CCCN=C(N)N)C(=O)N1CCC[C@H]1C(=O)N1CCC[C@H]1C(=O)N[C@@H](Cc1c[nH]c2ccccc12)C(=O)N[C@@H](Cc1ccc(O)cc1)C(=O)N[C@@H](CCCN=C(N)N)C(=O)O)[C@@H](C)CC [RRRRPIRRRPIRPPWYR]
